From patent publication US8618138B2, “Indole amide derivatives and related compounds for use in the treatment of neurodegenerative diseases” (Katholieke Universiteit Leuven, K.U. Leuven R&D, priority 2009, dated 2013)

Key:
M17-TAU P301L cells = assay: TAU cytotoxicity assay: LDH leakage of retinoic acid incubated M17-TAU P301L cells; format: cell-based, human; conditions: Homo sapiens, 168 h, reduction of LDH activity of retinoic acid incubated M17-TAU P301L cells, 7 days
In short: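 M17 neuroblastoma cells stably expressing human TAU P301L, seeded at 2500 cells/cm2 in Optimem with 1% FCS, then given 2.5 μM retinoic acid (stock before 1:1 addition) and grown 7 days at 37 °C. Cytotoxicity read as LDH leaked into medium; EC50 derived from these measurements.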

[1] = test system: TAU and phospho-isoforms thereof; assay: In-vivo inhibition of pathological TAU-phosphorylation, Western analysis of soluble brain protein fractions; parameters: species or system Human TAU R406W transgenic mice
Text: Quantification of Western analyses of TAU and phospho-TAU species of the soluble protein fraction prepared from […] of all individual mice used in this study (n=10 for each treatment group). TAU signals of all individual mice were normalized against neuron specific enolase (NSE) using antibodies (monoclonal anti-NSE antibody, clone 37E4, Abcam) to correct for possible loading control differences. The graphs depict the mean normalised TAU signals±SEM. The TAU signals were obtained by using antibodies directed against:
(A) pan-TAU (anti-TAU monoclonal antibody (mAb) HT7, Thermo Scientific; detects all tau species independent of phosphorylation status),
(B) phosphorylated tau on pS202, T205 (AD2 anti-TAU antibody, Biorad) and unphosphorylated tau on pS202 (anti-TAU-1 antibody, clone PC1C6, Millipore), the graph depicts the ratio of AD2/TAU-1;
(C) phosphorylated tau on pT231 (AT180 anti-TAU mAb, Thermo Scientific), and
(D) phosphorylated tau on pT181 (AT270 anti-TAU mAb, Thermo Scientific).
Statistics: students two-tailed T-test*p<0.05, **p<0.01.
Human TAU R406W transgenic mice (Zhang et al, J. of Neuroscience 24(19):4657-4667, 2004) were treated once-a-day subcutaneously for 4 weeks with compound D5 (see table 1) dissolved in arachidin oil at a dose of 35 mg/kg. Correspondingly vehicle treated transgenics were included as controls. At the end of the treatment period mice were sacrificed and brainstem was stereotactically collected. Soluble protein fractions were prepared (Terwel et al, J Biol Chem 280(5):3963-73, 2005) from the brain stem and subjected to Western analysis using antibodies directed against TAU and several different phospho-isoforms thereof.

[2] = TAU R406W transgenic mice, 35 mg/kg subcutaneously once-a-day for 4 weeks, vs vehicle, Western blot of soluble protein fraction

Compound | EC50 (M17-TAU P301L cells) [nM] | Phosphorylation of threonine residue 181 of TAU (AT270, FIG. 3 D) [1, 2] | TAU phosphorylated at serine 202 and tyrosine 205 (ratio AD2/TAU-1, FIG. 3 B) [1, 2] | TAU phosphorylated at tyrosine residue 231 (AT180, FIG. 3 C) [1, 2] | total TAU levels (pan-TAU, HT7 antibody, FIG. 3 A) [1, 2] | pathological TAU-species in-vivo (FIG. 3 legend) ([1]; Western analyses of TAU and phospho-TAU species, soluble protein fraction, n=10 per group)
O=C(NCCc1c[nH]c2ccc(Cl)cc12)c1cc(Cc2cc(F)ccc2F)on1 [Example D5, N-(2-(5-chloro-1H-indol-3-yl)ethyl)-5-(2,5-difluorobenzyl)isoxazole-3-carboxamide] | 12 | not affected | robust and statistically significant reduction | robust and statistically significant reduction | not statistically significant affected | reduces pathological TAU-species in-vivo
COc1ccccc1N1CCC(C(=O)NCCc2c[nH]c3ccc(Cl)cc23)C1=O (stereo not drawn) [Example D163, N-(2-(5-chloro-1H-indol-3-yl)ethyl)-1-(2-methoxyphenyl)-2-oxopyrrolidine-3-carboxamide] | 1860 | – | – | – | – | –
Cn1ccc(N2CCC(C(=O)NCCc3c[nH]c4ccc(Cl)cc34)C2=O)n1 (stereo not drawn) [Example D160, N-(2-(5-chloro-1H-indol-3-yl)ethyl)-1-(1-methyl-1H-pyrazol-3-yl)-2-oxopyrrolidine-3-carboxamide] | 1040 | – | – | – | – | –
Cc1cccc(Cc2nc(C(=O)NCCc3c[nH]c4ccc(Cl)cc34)no2)c1 [Example D184, N-(2-(5-chloro-1H-indol-3-yl)ethyl)-5-(3-methylbenzyl)-1,2,4-oxadiazole-3-carboxamide] | 26 | – | – | – | – | –
